# Measured values taken from US20080214671A1, “Dicarbonic Acid Derivatives, Metastasis Inhibitors and Agents Increasing Chemotherapeutic Activity of Anti-Tumor Preparations, Method for Enhancing the Cytostatic Efficiency and Metastasis Process Inhibiting Method” (priority 2005, published 2008).
# Columns and labels:
# Assay type in all cases: in vivo
# Leukemia P388 = assay: P388 leukemia in BDF1 mice, combined therapy with cytostatic
# Method: (§1) An experimental study of the anti-tumor activity of the FB-13 preparation as a chemosensitizer was carried out on tumor models of P388 leukemia and Lewis metastatic lung carcinoma, which can be seen in Examples 5 and 6.
# Leukemia P388 was intraperitoneally inoculated to hybrid mice BDF1. The inoculum was 10^6 leukemic cells in 0.2 ml normal saline. The preparation was administered at a dose 10 mg/kg, cisplatin—at a dose 2 mg/kg on days 1, 3, 5 and 7 post transplantation. The number of cured (surviving for 60 days) animals served as an assessment criterion.
# Similar studies were carried out with the preparation FB-14 (50 mg/kg) and cyclophosphane (60 mg/kg).
# Furthermore, a significant increase in the average life span (ILS) of the animals as compared to the control group is shown in FIG. 4b.
# Lewis lung carcinoma = Lewis lung carcinoma in BDF1 mice, metastasis inhibition in the lungs
# Method: as §1
# Lewis lung carcinoma was subcutaneously inoculated to hybrid mice BDF1. The inoculum was 5×10^6 tumor cells. The combined effect of FB-13 and cisplatin was investigated. The index of metastasis inhibition (IMI in %) in the lungs served as the assessment criterion. When cisplatin was administered alone, IMI was 50%, in combined administration with FB-13, it was 100% (FIG. 2).
# B-16 melanoma = B-16 melanoma in BDF1 mice, metastasis inhibition in the lungs
# Method: Experimental B-16 melanoma was subcutaneously engrafted to hybrid mice BDF1. The inoculum was 5×10^6 tumor cells. The combined effect of FB-13 and cisplatin was investigated. The index of metastasis inhibition (IMI in %) in the lungs served as the assessment criterion. When cisplatin was administered alone, IMI was 52%, in combined administration with FB-13, it was 100%. Similar studies were carried out with hydroxamic acids based on oxalic acid (the compound L215) and based on tartaric acid (the compound L221). Tests for acute toxicity were carried out in the group of experimental oncology of the IPKhF of the RAS by intraperitoneal administration of the preparations in water to BDF1 mice. […] The use of these compounds at the minimum doses in combination with the minimum doses of cytostatics (when neither of the preparations taken alone provides a therapeutic effect) makes complete inhibition of the metastasis process in experimental B-16 melanoma or Lewis lung carcinoma possible. Furthermore, the use of dicarbonic acid oxyamides as agents for enhancing the anti-tumor effect makes it possible in a combination with the minimum amounts of oxyamide and a cytostatic (a unit dose of cytostatics being 4 times lower than a therapeutic dose) to enhance the efficacy in the treatment of P-388 leukemia (survival rate of the animals is 100%).
# [1] = combined administration of FB-13 with cisplatin
# [2] = cisplatin administered alone, s.c. inoculum 5x10^6 cells
Compound,"number of cured (surviving for 60 days) animals (Leukemia P388; combined administration: FB-13 10 mg/kg and cisplatin 2 mg/kg on days 1, 3, 5 and 7) [%]",index of metastasis inhibition (IMI) in the lungs (Lewis lung carcinoma; [1]) [%],index of metastasis inhibition (IMI) in the lungs (B-16 melanoma; [1]) [%],"number of cured (surviving for 60 days) animals (Leukemia P388; only cisplatin, 2 mg/kg on days 1, 3, 5 and 7 post transplantation, i.p. inoculum 10^6 cells) [%]",index of metastasis inhibition (IMI) in the lungs (Lewis lung carcinoma; [2]) [%],index of metastasis inhibition (IMI) in the lungs (B-16 melanoma; [2]) [%]
"NC(=O)C(N)=O.O=C(O)/C=C\C(=O)O [FB-13, Maleic acid monooxamide]",100,100,100,,,
N.N.[Cl][Pt][Cl] [cisplatin],,,,66.7,50,52
